The values below come from ChEMBL document CHEMBL1201862, “PubChem BioAssay data set” (2004).

Test systems include UACC-257; SN12C; CCRF-CEM; SNB-19; SR; SF-268; LOX IMVI; 786-0; OVCAR-8; HCT-116; SK-OV-3; HL-60; HOP-92; PC-3; CAKI-1; BT-549; K562; NCI-H522; MDA-N.
Holding throughout (assay): NCI anticancer screen, dose series, 48 h

The structures appear in SMILES notation.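 Growth conditions: 96-well plates. Treatment: test compound, 48 hours, 5 concentrations. Analysis: linear interpolation between bracketing concentrations; unreached endpoints set to highest concentration. Abbreviation: GI50, concentration required for 50% inhibition of growth.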 The source made the active and inactive calls. Rule as the data show it: active = GI50 up to about 1.1 µM and inactive = higher.

In the case of `Cc1cc2c(C)nn(Cc3ccccc3)c2c(C(=O)O)c1C`, the GI50 in the assay with UACC-257, in the assay on SN12C, in the assay on CCRF-CEM, in the assay with SNB-19, in the assay on SR and with SF-268 was > 100 µM (inactive) each time. Further, the GI50 in the assay with LOX IMVI, in the assay with 786-0, with OVCAR-8, in the assay on HCT-116, in the assay on SK-OV-3 and in the assay on HL-60 was > 100 µM (inactive) each time. In addition, in the assay with HOP-92, the GI50 was > 100 µM (inactive).

Regarding `Cn1c(-c2cccc(N)c2)[n+](C)c2ccccc21`, the GI50 in the assay with UACC-257 was > 100 µM (inactive); in the assay on CCRF-CEM, 53.1 µM (inactive); with PC-3, > 100 µM (inactive); in the assay on SNB-19 it was 60.3 µM (inactive); with SR, > 100 µM (inactive); in the assay on SF-268, > 100 µM (inactive). Further, the GI50 in the assay with LOX IMVI, in the assay with 786-0, in the assay with CAKI-1, in the assay with OVCAR-8, with BT-549 and in the assay on HCT-116 was > 100 µM (inactive) throughout. Moreover, the GI50 in the assay on SK-OV-3 is > 100 µM (inactive); with K562, > 100 µM (inactive); in the assay with HL-60 it was 36.1 µM (inactive); with HOP-92, > 100 µM (inactive).

For `COc1c(C)c2nc3ccccc3nc2c2c(O)ccnc12`, the GI50 is > 100 µM (inactive) with UACC-257; 71.3 µM (inactive) with NCI-H522; > 100 µM (inactive) with SN12C; > 100 µM (inactive) in the assay with CCRF-CEM; > 100 µM (inactive) in the assay on PC-3; 36.6 µM (inactive) with SNB-19. For the same compound, the GI50 in the assay on SR was > 100 µM (inactive); with SF-268, 68.7 µM (inactive); with LOX IMVI, > 100 µM (inactive); in the assay with 786-0 it was 16.9 µM (inactive); with CAKI-1 it was > 100 µM (inactive); in the assay with OVCAR-8, 50.5 µM (inactive). Also, the GI50 was > 100 µM (inactive) in the assay on HCT-116; 75.7 µM (inactive) in the assay with SK-OV-3; > 100 µM (inactive) in the assay with K562; > 100 µM (inactive) in the assay with HL-60; > 100 µM (inactive) in the assay on MDA-N; 36.4 µM (inactive) in the assay with HOP-92.

As for `CCCC(=O)OC[n+]1ccc2c(C)c3[nH]c4ccccc4c3c(C)c2c1`, the GI50 in the assay on UACC-257 was 1.35 µM (inactive); in the assay on NCI-H522, 0.832 µM (active); with SN12C, 0.404 µM (active); with CCRF-CEM, 1.66 µM (inactive); in the assay with SNB-19, 0.935 µM (active); in the assay with SR, 0.0681 µM (active). Besides, the GI50 with SF-268 was 0.661 µM (active); with LOX IMVI, 0.341 µM (active); with 786-0, 0.305 µM (active); in the assay on CAKI-1, 1.29 µM (inactive); with OVCAR-8, 0.394 µM (active); in the assay on HCT-116, 0.118 µM (active). The GI50 was 0.547 µM (active) in the assay with SK-OV-3, 0.466 µM (active) with K562, 1.68 µM (inactive) in the assay with HL-60 and 1.32 µM (inactive) with HOP-92.

In the case of `COc1cc(C2NCCC(c3ccccc3)(c3ccccc3)N2)cc(OC)c1OC` (stereo unspecified), the GI50 in the assay on UACC-257 was 18.2 µM (inactive); with SN12C, 59.3 µM (inactive); in the assay on CCRF-CEM, 39.3 µM (inactive); in the assay with SNB-19, 55.7 µM (inactive); in the assay with SR, 26.4 µM (inactive); in the assay on SF-268, 52.4 µM (inactive). The GI50 in the assay on LOX IMVI was 13.5 µM (inactive); in the assay on 786-0, 22.6 µM (inactive); in the assay with OVCAR-8 it was 60.4 µM (inactive); in the assay on HCT-116, 4.43 µM (inactive); in the assay with SK-OV-3 it was 78 µM (inactive); in the assay with HL-60, 5.83 µM (inactive). The GI50 with HOP-92 was 3.52 µM (inactive).

As for `O=C(CSCC(=O)N/N=C\c1cccc([N+](=O)[O-])c1)N/N=C\c1cccc([N+](=O)[O-])c1`, the GI50 with UACC-257 was > 100 µM (inactive); in the assay on NCI-H522 it was 43.8 µM (inactive); in the assay on SN12C it was 68.9 µM (inactive); in the assay with CCRF-CEM it was > 100 µM (inactive); in the assay on SNB-19, 18 µM (inactive); with SR it was 69 µM (inactive). The GI50 with SF-268 was 39.9 µM (inactive); in the assay on LOX IMVI it was 53.1 µM (inactive); with 786-0, 18.2 µM (inactive); in the assay on CAKI-1 it was 23.3 µM (inactive); in the assay with OVCAR-8, 31.3 µM (inactive); in the assay with HCT-116 it was 27.7 µM (inactive). For the same compound, the results for the GI50 in the assay with SK-OV-3, with HL-60 and in the assay on HOP-92 were 52.1 µM (inactive), > 100 µM (inactive) and 32.4 µM (inactive), respectively.

Regarding `CC(=O)OCC(C)C1=C(O)C(=O)C2(C)C/C=C(/C)CC/C=C(\C)CCC(O)C(C)CCC12` (stereo unspecified), the GI50 in the assay on UACC-257 was 18.6 µM (inactive); in the assay on NCI-H522 it was 17.3 µM (inactive); in the assay with SN12C, 19 µM (inactive); with CCRF-CEM it was 21.5 µM (inactive); in the assay with PC-3, 15.3 µM (inactive); in the assay on SNB-19, 18.4 µM (inactive). The GI50 is 7.89 µM (inactive) with SR; 18 µM (inactive) in the assay with SF-268; 18.1 µM (inactive) in the assay with LOX IMVI; 16.9 µM (inactive) in the assay with 786-0; 17.3 µM (inactive) with CAKI-1; 18.1 µM (inactive) with OVCAR-8. Besides, the GI50 is 18.8 µM (inactive) in the assay with HCT-116; 14.1 µM (inactive) in the assay with K562; 17.5 µM (inactive) in the assay with HL-60; 17 µM (inactive) in the assay with MDA-N; 18 µM (inactive) with HOP-92.

As to `CN(C)c1nc(N)nc(CS)n1`, the GI50 was > 100 µM (inactive) with UACC-257; > 100 µM (inactive) with NCI-H522; > 100 µM (inactive) in the assay with SN12C; 25.5 µM (inactive) in the assay with CCRF-CEM; 54.3 µM (inactive) with PC-3; > 100 µM (inactive) in the assay with SNB-19. Besides, the GI50 is 37.2 µM (inactive) with SR; > 100 µM (inactive) in the assay with SF-268; 42.3 µM (inactive) with LOX IMVI; > 100 µM (inactive) with 786-0; > 100 µM (inactive) in the assay on CAKI-1; > 100 µM (inactive) with OVCAR-8. The GI50 is > 100 µM (inactive) in the assay with BT-549; > 100 µM (inactive) in the assay with HCT-116; > 100 µM (inactive) in the assay on SK-OV-3; 29.9 µM (inactive) with K562; 23.3 µM (inactive) in the assay on HL-60; > 100 µM (inactive) in the assay on HOP-92.

Take `CSC1=C(C(=O)N(COCC[Si](C)(C)C)c2ccccc2Br)CCC(C(C)(C)C)C1` (stereo unspecified): the GI50 in the assay on UACC-257 was 9.77 µM (inactive); in the assay with NCI-H522, 7.78 µM (inactive); in the assay with SN12C, 14.1 µM (inactive); in the assay with CCRF-CEM, 22.7 µM (inactive); in the assay on PC-3 it was 12.4 µM (inactive); with SNB-19 it was 18.5 µM (inactive). Also, the GI50 with SR was 3.42 µM (inactive); in the assay with LOX IMVI, 15.7 µM (inactive); in the assay with 786-0, 13.3 µM (inactive); in the assay on CAKI-1, 1.83 µM (inactive); in the assay with OVCAR-8, 17.8 µM (inactive); in the assay with BT-549 it was 28.1 µM (inactive). Moreover, the GI50 is 5.32 µM (inactive) with HCT-116; 31.9 µM (inactive) in the assay with SK-OV-3; 8.28 µM (inactive) in the assay on K562; 3.24 µM (inactive) with HL-60; 12.9 µM (inactive) with HOP-92.

Take `O=C1C2=Cc3ccccc3OC2(O)Oc2ccccc21` (stereo unspecified): the GI50 with UACC-257, with SN12C, in the assay with CCRF-CEM, in the assay with PC-3, in the assay with SR and in the assay on SF-268 was > 100 µM (inactive) each time. In addition, the GI50 in the assay with LOX IMVI, in the assay on 786-0, in the assay on CAKI-1, in the assay with OVCAR-8, in the assay on HCT-116 and in the assay with SK-OV-3 was > 100 µM (inactive) in each case. The values for the GI50 with K562, in the assay with MDA-N and with HOP-92 were 57.8 µM (inactive), > 100 µM (inactive) and > 100 µM (inactive), respectively.

As for `CCOC(=O)/C1=C(\C)N(c2ccc(C)cc2)C(=O)c2ccccc2C(=O)c2c(OC(C)=O)ccc(OC(C)=O)c21`, the GI50 in the assay with UACC-257 is 21.8 µM (inactive); with NCI-H522, 20.7 µM (inactive); with SN12C, 20.4 µM (inactive); in the assay on CCRF-CEM, 10.8 µM (inactive); with PC-3, 26.2 µM (inactive); in the assay on SNB-19, 25.2 µM (inactive). Further, the GI50 is 15.8 µM (inactive) with SR; 37.5 µM (inactive) in the assay with SF-268; 14.4 µM (inactive) in the assay on LOX IMVI; 34.8 µM (inactive) with 786-0; 13.3 µM (inactive) in the assay with CAKI-1; 36.8 µM (inactive) in the assay on OVCAR-8. Further, the GI50 with BT-549 is 25.3 µM (inactive); with HCT-116 it was 15.3 µM (inactive); in the assay on SK-OV-3 it was 17.2 µM (inactive); in the assay on K562, 16.1 µM (inactive); with HL-60, 20 µM (inactive); in the assay on HOP-92 it was 29.9 µM (inactive).

As for `O=C(NCCCN1CCN(CCCNC(=O)c2cccc3ccccc23)CC1)c1cccc2ccccc12`, the GI50 in the assay on UACC-257 is > 100 µM (inactive); in the assay with SN12C it was > 100 µM (inactive); with CCRF-CEM, > 100 µM (inactive); with SNB-19, 76.7 µM (inactive); in the assay on LOX IMVI, > 100 µM (inactive); in the assay with 786-0, 44.1 µM (inactive). Also, the GI50 in the assay with CAKI-1 is 51.3 µM (inactive); in the assay on OVCAR-8 it was > 100 µM (inactive); with HCT-116, 39.1 µM (inactive); in the assay with SK-OV-3 it was 23 µM (inactive); in the assay with K562, 41.4 µM (inactive); in the assay with HL-60 it was 79.6 µM (inactive). Moreover, the GI50 in the assay on HOP-92 is 0.107 µM (active).

Take `Cc1cc2nc3c(C#N)c4c(c(Cl)n3c2cc1C)CCC4`: the GI50 is 36.7 µM (inactive) in the assay on UACC-257; 17.4 µM (inactive) in the assay on NCI-H522; 18.6 µM (inactive) in the assay with SN12C; 23.9 µM (inactive) in the assay on SF-268; 18.1 µM (inactive) in the assay with LOX IMVI; 16 µM (inactive) in the assay with 786-0. Also, the GI50 with CAKI-1 is 18.5 µM (inactive); with OVCAR-8, 20.2 µM (inactive); with BT-549 it was 22.5 µM (inactive); in the assay with HCT-116, 16.1 µM (inactive); in the assay on SK-OV-3 it was > 100 µM (inactive); with HOP-92 it was 31.8 µM (inactive).
